Results published in patent US7348161B2, “Macrolide efflux genetic assembly” (Emory University, priority 2001, dated 2008).
In brackets after ≈: the same amount, converted by molar mass. Numbered stars: 1 amine (or outer) side, 2 acyl side, 3 side chain; on linkers, the order of the positions; unused ones are H or OH. Bridge positions count the residues as written; N and C are the ends. Square brackets hold non-standard residues; d marks the D form. Peptide text beside a SMILES is read from it. * marks the point of attachment. X1 = O=C1C[C@@H](C(=O)[*:2])N([*:1])C[C@H]1CS[C@@H]1CN2CCC1CC2; NMePhe(4-NMe2) = CN[C@@H](Cc1ccc(N(C)C)cc1)C(=O)O; Picolinoyl(3-OH) = O=C(c1ncccc1O)*; Phg = N[C@H](C(=O)O)c1ccccc1; dAbu = CC[C@@H](N)C(=O)O

Tests used:
[1] = system: invasive pneumococcal isolates; test: Preliminary screening of 1998 invasive pneumococcal isolates for quinupristin resistance; format: cell-based, S. pneumoniae
MefE = conditions: proton motive function of MefE; refs [9,10]; cited from earlier work
[2] = system: pneumococci containing ermAM; conditions: typical value; cited from earlier work
S. pneumoniae isolates = test: Antimicrobial susceptibility (NCCLS guidelines) of invasive S. pneumoniae isolates; format: cell-based; conditions: Streptococcus pneumoniae

CC[C@H]1NC(=O)[C@@H](NC(=O)c2ncccc2O)[C@@H](C)OC(=O)[C@H](c2ccccc2)NC(=O)[C@@H]2CC(=O)[C@H](CS[C@@H]3CN4CCC3CC4)CN2C(=O)[C@H](Cc2ccc(N(C)C)cc2)N(C)C(=O)[C@@H]2CCCN2C1=O [quinupristin] ({Picolinoyl(3-OH)}-T[dAbu]P[NMePhe(4-NMe2)][X1][Phg]; ester 1-C)
Share of isolates resistant [1]: approximately half were resistant

arsenate
Effect on efflux of [14C]-erythromycin (MefE): decrease in the efflux

N#CC(C#N)=NNc1cccc(Cl)c1 [carbonylcyanide-m-chlorophenylhydrazone]
Effect on efflux of [14C]-erythromycin (MefE): decrease in the efflux

CC[C@H]1OC(=O)[C@H](C)[C@@H](O[C@H]2C[C@@](C)(OC)[C@@H](O)[C@H](C)O2)[C@H](C)[C@@H](O[C@@H]2O[C@H](C)C[C@H](N(C)C)[C@H]2O)[C@](C)(O)C[C@@H](C)C(=O)[C@H](C)[C@@H](O)[C@]1(C)O [erythromycin]
Erythromycin MIC [2]: 64 µg/mL | MIC (S. pneumoniae isolates; eighty-nine mefE-containing isolates, January 1994 to February 1996): ≥ 4 µg/mL | MIC (S. pneumoniae isolates; subset of 336 erythromycin-resistant isolates, 1994-1996 and 1998): 4 µg/mL (≈ 5.45 µM)
